Our source for the IC50 values is patent US8962641B2, “Pyrimidine-substituted pyrrolidine derivatives, pharmaceutical compositions and uses thereof” (Boehringer Ingelheim International GmbH, priority 2013, dated 2015).

pIC50: −log10 of the molar value.

The assay has as its target human ACC2 (Homo sapiens (Human), UniProt O00763). The assay can be described thus: ACC2 assay (spectrophotometric 384 well assay, NADH-linked kinetic method). Type of assay: biochemical. Particulars: hACC2 construct lacking 128 N-terminal amino acids; coupled lactate dehydrogenase/pyruvate kinase reaction, 340 nm, 25° C. The essentials:
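Baculovirus/insect-cell human ACC2, anion-exchange purified; ADP formation coupled to pyruvate kinase/lactate dehydrogenase, NADH loss followed at 340 nm, 25° C, 15 min. Final 200 μM NADH and acetyl-CoA, 500 uM ATP; vehicle and no-acetyl-CoA wells set 100% and 0%.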

Sequence of human ACC2 (O00763 129-2458): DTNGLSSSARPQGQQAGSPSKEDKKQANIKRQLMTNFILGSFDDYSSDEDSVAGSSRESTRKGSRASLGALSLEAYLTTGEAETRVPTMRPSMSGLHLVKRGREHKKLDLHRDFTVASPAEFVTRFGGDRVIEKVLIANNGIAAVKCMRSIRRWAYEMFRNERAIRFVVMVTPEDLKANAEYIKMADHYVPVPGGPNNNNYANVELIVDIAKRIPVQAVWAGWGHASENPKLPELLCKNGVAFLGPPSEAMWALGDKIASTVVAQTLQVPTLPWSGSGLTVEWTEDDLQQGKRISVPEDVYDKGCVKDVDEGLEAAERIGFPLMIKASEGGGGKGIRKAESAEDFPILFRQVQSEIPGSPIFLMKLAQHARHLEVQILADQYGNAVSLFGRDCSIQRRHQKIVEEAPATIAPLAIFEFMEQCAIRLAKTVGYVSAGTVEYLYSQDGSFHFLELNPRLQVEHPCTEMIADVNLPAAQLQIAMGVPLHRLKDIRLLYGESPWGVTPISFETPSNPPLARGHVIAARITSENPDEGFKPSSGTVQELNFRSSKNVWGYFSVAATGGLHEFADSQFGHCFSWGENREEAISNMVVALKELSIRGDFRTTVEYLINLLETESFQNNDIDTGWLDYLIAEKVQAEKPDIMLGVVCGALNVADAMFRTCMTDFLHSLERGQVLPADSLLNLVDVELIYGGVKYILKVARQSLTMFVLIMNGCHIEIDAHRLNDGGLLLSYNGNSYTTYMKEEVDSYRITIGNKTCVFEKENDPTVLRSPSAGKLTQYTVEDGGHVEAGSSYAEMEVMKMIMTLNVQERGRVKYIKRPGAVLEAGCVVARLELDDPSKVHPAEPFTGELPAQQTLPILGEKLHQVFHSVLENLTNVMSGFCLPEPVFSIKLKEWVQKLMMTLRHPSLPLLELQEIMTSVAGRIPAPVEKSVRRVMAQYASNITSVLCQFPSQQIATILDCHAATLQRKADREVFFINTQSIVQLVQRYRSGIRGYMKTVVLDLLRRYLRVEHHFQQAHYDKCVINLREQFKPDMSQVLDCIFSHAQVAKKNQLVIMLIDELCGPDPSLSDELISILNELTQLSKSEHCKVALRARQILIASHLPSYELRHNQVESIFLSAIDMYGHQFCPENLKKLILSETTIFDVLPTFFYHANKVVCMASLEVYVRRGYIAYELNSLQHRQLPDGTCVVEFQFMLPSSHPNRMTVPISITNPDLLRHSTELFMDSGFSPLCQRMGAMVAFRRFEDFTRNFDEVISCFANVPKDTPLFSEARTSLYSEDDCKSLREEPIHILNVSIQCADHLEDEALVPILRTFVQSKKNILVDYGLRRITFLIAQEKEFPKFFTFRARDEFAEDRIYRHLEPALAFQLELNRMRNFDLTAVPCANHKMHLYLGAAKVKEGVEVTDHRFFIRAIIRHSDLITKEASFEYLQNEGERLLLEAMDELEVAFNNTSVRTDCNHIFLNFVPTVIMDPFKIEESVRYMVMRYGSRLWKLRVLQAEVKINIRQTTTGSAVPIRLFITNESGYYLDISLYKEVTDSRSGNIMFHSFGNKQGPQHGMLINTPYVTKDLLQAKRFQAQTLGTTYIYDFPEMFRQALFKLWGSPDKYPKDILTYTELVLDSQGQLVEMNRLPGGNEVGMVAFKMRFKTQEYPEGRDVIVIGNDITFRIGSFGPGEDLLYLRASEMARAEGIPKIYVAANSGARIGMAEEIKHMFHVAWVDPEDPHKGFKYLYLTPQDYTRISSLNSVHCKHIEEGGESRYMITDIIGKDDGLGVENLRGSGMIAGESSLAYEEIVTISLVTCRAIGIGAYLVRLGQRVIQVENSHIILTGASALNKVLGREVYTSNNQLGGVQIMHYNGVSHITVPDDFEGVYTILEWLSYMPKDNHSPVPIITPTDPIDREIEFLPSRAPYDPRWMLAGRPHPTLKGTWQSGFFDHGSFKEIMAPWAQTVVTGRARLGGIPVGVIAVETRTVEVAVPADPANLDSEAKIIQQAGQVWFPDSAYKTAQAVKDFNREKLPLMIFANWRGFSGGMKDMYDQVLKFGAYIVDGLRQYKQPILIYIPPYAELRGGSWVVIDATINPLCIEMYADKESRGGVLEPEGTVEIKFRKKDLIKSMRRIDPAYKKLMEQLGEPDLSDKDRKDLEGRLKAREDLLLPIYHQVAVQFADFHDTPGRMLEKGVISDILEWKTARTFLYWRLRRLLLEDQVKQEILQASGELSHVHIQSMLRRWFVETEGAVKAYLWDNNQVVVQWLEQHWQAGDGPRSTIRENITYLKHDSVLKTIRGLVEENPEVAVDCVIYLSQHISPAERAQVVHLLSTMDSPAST

In the case of `COCCCN(C)c1ncnc(N2CC[C@@H](Oc3ccc([C@H](C)NC(C)=O)cc3)C2)c1F` [Example 8.270], the negative logarithm of the IC50 (pIC50) (usually the negative decadic logarithm of the IC50, by convention in mol/L) is 6.34. Then `CC(=O)N[C@@H](C)c1ccc(O[C@@H]2CCN(c3nc(N4CCCC4(C)C)ncc3F)C2)cc1` [Example 8.271], with 6.77. As to `CC(=O)N[C@@H](C)c1ccc(O[C@@H]2CCN(c3nc(N4CC5COCC5C4)ncc3F)C2)cc1` (stereo partly shown) [Example 8.272], the pIC50 is 5.92. Then `CC(=O)N[C@@H](C)c1ccc(O[C@@H]2CCN(c3nc(N4CCC(C)(O)CC4)ncc3F)C2)cc1` [Example 8.273], with 5.87; and `CC(=O)N[C@@H](C)c1ccc(O[C@@H]2CCN(c3nc(N4CCOC(C)C4)ncc3F)C2)cc1` (stereo partly shown) [Example 8.274], with 6.89; and `COC1CCCN(c2ncc(F)c(N3CC[C@@H](Oc4ccc([C@H](C)NC(C)=O)cc4)C3)n2)C1` (stereo partly shown) [Example 8.275], with 6.74.

As to `CC(=O)N[C@@H](C)c1ccc(O[C@@H]2CCN(c3nc(N4CCC5(CC5)C4)ncc3Cl)C2)cc1` [Example 8.276], the pIC50 was 6.76. For `CC(=O)N[C@@H](C)c1ccc(O[C@@H]2CCN(c3ccnc(N4C[C@@H]5CC[C@@H](C4)O5)n3)C2)cc1` [Example 8.277], the pIC50 is 6.06.

As for `CC(=O)N[C@@H](C)c1ccc(O[C@@H]2CCN(c3ncnc(N4C[C@@H]5CC[C@@H](C4)O5)c3F)C2)cc1` [Example 8.278], the pIC50 is 6.17.

In the case of `CC(=O)N[C@@H](C)c1ccc(O[C@@H]2CCN(c3nc(N4C[C@@H]5CC[C@@H](C4)O5)ncc3F)C2)cc1` [Example 8.279], the pIC50 was 6.43. The same measure for `CC(=O)N[C@@H](C)c1ccc(O[C@@H]2CCN(c3nc(N4C[C@@H]5CC[C@@H](C4)O5)ncc3Cl)C2)cc1` [Example 8.280]: 5.91; for `CC(=O)N[C@@H](C)c1ccc(O[C@@H]2CCN(c3nc(N4CCC[C@@H]4C)ncc3Cl)C2)cc1` [Example 8.281]: 6.43; for `CC(=O)N[C@@H](C)c1ccc(O[C@@H]2CCN(c3nc(N4CCC[C@@H]4C)ncc3F)C2)cc1` [Example 8.282]: 6.80. `CC(=O)N[C@@H](C)c1ccc(O[C@@H]2CCN(c3nc(N4CCC[C@H]4C)ncc3F)C2)cc1` [Example 8.283] gave a pIC50 of 7.24. The same measure for `CC(=O)N[C@@H](C)c1ccc(O[C@@H]2CCN(c3ncnc(N4CCC[C@@H]4C)c3F)C2)cc1` [Example 8.284]: 6.62; for `CC(=O)N[C@@H](C)c1ccc(O[C@@H]2CCN(c3nc(N4CCC[C@H]4C)ncc3Cl)C2)cc1` [Example 8.285]: 7.05.

`CC(=O)N[C@@H](C)c1ccc(O[C@@H]2CCN(c3ncnc(N4CCC[C@H]4C)c3F)C2)cc1` [Example 8.286] showed a pIC50 of 6.78.

`CC(=O)N[C@@H](C)c1ccc(O[C@@H]2CCN(c3ncnc(N4CC[C@@H](F)C4)c3F)C2)cc1` [Example 8.287]: the pIC50 is 6.34.

In the case of `CC(=O)N[C@@H](C)c1ccc(O[C@@H]2CCN(c3nc(N(CCO)C4CC4)ncc3F)C2)cc1` [Example 8.288], the pIC50 is 6.06. The same measure for `CC(=O)N[C@@H](C)c1ccc(O[C@@H]2CCN(c3nc(N4CC(F)(F)C4)ncc3Cl)C2)cc1` [Example 8.289]: 6.32. `CC(=O)N[C@@H](C)c1ccc(O[C@@H]2CCN(c3nc(N(C)C4CCOCC4)ncc3F)C2)cc1` [Example 8.290] gave a negative logarithm of the IC50 (pIC50) of 6.12. The same measure for `CC(=O)N[C@@H](C)c1ccc(O[C@@H]2CCN(c3ncnc(N4CC[C@](C)(O)C4)c3F)C2)cc1` [Example 8.291]: 6.95.

`CC(=O)N[C@@H](C)c1ccc(O[C@@H]2CCN(c3ncnc(NCC4(O)CCC4)c3F)C2)cc1` [Example 8.292] had a pIC50 of 6.44. Compound `CC(=O)N[C@@H](C)c1ccc(O[C@@H]2CCN(c3ncnc(N4CC[C@H](C)C4)c3F)C2)cc1` [Example 8.293] showed a negative-log IC50 (pIC50) of 7.30. Then `CC(=O)N[C@@H](C)c1ccc(O[C@@H]2CCN(c3ncnc(N4CC[C@@H](C)C4)c3F)C2)cc1` [Example 8.294], with 7.28; and `COc1c(N2CC[C@@H](Oc3ccc([C@H](C)NC(C)=O)cc3)C2)ncnc1N1CCC(C)(O)C1` (stereo partly shown) [Example 8.295], with 6.10; and `CC(=O)N[C@@H](C)c1ccc(O[C@@H]2CCN(c3ncnc(NCC(C)(C)O)c3Cl)C2)cc1` [Example 8.296], with 6.95.

For the compound `CC(=O)N[C@@H](C)c1ccc(O[C@@H]2CCN(c3ncnc(N4CCC(C)(O)C4)c3Cl)C2)cc1` (stereo partly shown) [Example 8.297], the pIC50 is 6.65.

The compound `CCCNc1ncnc(N2CC[C@@H](Oc3ccc([C@H](C)NC(C)=O)cc3)C2)c1Cl` [Example 8.298] gave a pIC50 of 6.81.

The compound `CC(=O)N[C@@H](C)c1ccc(O[C@@H]2CCN(c3ncnc(NCC4(O)CCC4)c3Cl)C2)cc1` [Example 8.299] gave a negative-log IC50 (pIC50) of 7.15.

`COc1c(NCC2(O)CCC2)ncnc1N1CC[C@@H](Oc2ccc([C@H](C)NC(C)=O)cc2)C1` [Example 8.300] gave a pIC50 of 6.27.

With `CCCNc1ncnc(N2CC[C@@H](Oc3ccc([C@H](C)NC(C)=O)cc3)C2)c1OC` [Example 8.301], the negative-log IC50 (pIC50) was 6.09. Compound `CCCNc1ncc(F)c(N2CC[C@@H](Oc3ccc([C@H](C)NC(C)=O)cc3)C2)n1` [Example 8.302] gave a negative-log IC50 (pIC50) of 6.69.

Consider `CC(=O)N[C@@H](C)c1ccc(O[C@@H]2CCN(c3nc(NCC4CC4)ncc3F)C2)cc1` [Example 8.303], for which the pIC50 was 6.52.

The compound `CC(=O)N[C@@H](C)c1ccc(O[C@@H]2CCN(c3nc(NCC(F)F)ncc3F)C2)cc1` [Example 8.304] showed a negative logarithm of the IC50 (pIC50) of 6.29. The same measure for `CC(=O)N[C@@H](C)c1ccc(O[C@@H]2CCN(c3ncnc(NCC4(O)CC4)c3Cl)C2)cc1` [Example 8.305]: 6.75; for `CCC(=O)Nc1nc(C)c(C(=O)N[C@@H](C)c2ccc(O[C@@H]3CCN(c4ncnc(NCC5CC5)c4Cl)C3)cc2)s1` [Example 8.307]: 7.03; for `CC(=O)N[C@@H](C)c1ccc(O[C@@H]2CCN(c3ncnc(NC4CCCC4)c3Cl)C2)cc1` [Example 8.308]: 6.98. `CC(=O)N[C@@H](C)c1ccc(O[C@@H]2CCN(c3ncnc(NCC4CC4)c3Cl)C2)cc1` [Example 8.309] gave a pIC50 of 7.38.

The compound `CC(=O)N[C@@H](C)c1ccc(O[C@@H]2CCN(c3ncnc(N4CC[C@H](C)C4)c3Cl)C2)cc1` [Example 8.310] gave a negative logarithm of the IC50 (pIC50) of 7.28. Then `CC(=O)N[C@@H](C)c1ccc(O[C@@H]2CCN(c3ncnc(NCC4CCC4)c3Cl)C2)cc1` [Example 8.311], with 7.21; and `CCCNc1ncnc(N2CC[C@@H](Oc3ccc([C@H](C)NC(=O)c4sc(NC(=O)CC)nc4C)cc3)C2)c1Cl` [Example 8.312], with 6.54. Then `CC(=O)N[C@@H](C)c1ccc(O[C@@H]2CCN(c3ncnc(NCC4CCCO4)c3Cl)C2)cc1` (stereo partly shown) [Example 8.313], with 6.51; and `CCC(C)Nc1ncnc(N2CC[C@@H](Oc3ccc([C@H](C)NC(C)=O)cc3)C2)c1Cl` (stereo partly shown) [Example 8.314], with 6.46. Compound `CCC(=O)Nc1nc(C)c(C(=O)N[C@@H](C)c2ccc(O[C@@H]3CCN(c4ncnc(NCC(F)F)c4Cl)C3)cc2)s1` [Example 8.315] gave a pIC50 of 6.26. `CC(=O)N[C@@H](C)c1ccc(O[C@@H]2CCN(c3ncnc(NCC4CCCCO4)c3Cl)C2)cc1` (stereo partly shown) [Example 8.316] gave a pIC50 of 6.24. Then `CCCNc1ncnc(N2CC[C@@H](Oc3ccc([C@H](C)NC(=O)c4sc(NC(=O)CC)nc4C)cc3)C2)c1F` [Example 8.318], with 6.15. `CCCNc1ncnc(N2CC[C@@H](Oc3ccc([C@H](C)NC(=O)c4sc(NC(=O)CC)nc4C)cc3)C2)c1OC` [Example 8.320] showed a pIC50 of 6.13. Compound `CCC(=O)Nc1nc(C)c(C(=O)N[C@@H](C)c2ccc(O[C@@H]3CCN(c4ncnc(NCC(F)F)c4OC)C3)cc2)s1` [Example 8.321] showed a pIC50 of 6.08. In the case of `COc1cccc(-c2nccc(N3CC[C@@H](Oc4ccc([C@H](C)NC(C)=O)cc4)C3)n2)c1` [Example 9.1, N—((S)-1-(4-((R)-1-(2-(3-methoxyphenyl)pyrimidin-4-yl)pyrrolidin-3-yloxy)phenyl)ethyl)acetamide], the pIC50 is 6.14. The same measure for `CC(=O)N[C@@H](C)c1ccc(O[C@@H]2CCN(c3ncnc(C4CC4)c3Cl)C2)cc1` [Example 9.2]: 6.01. `CC(=O)N[C@@H](C)c1ccc(O[C@@H]2CCN(c3ncnc(C4CCC4)c3F)C2)cc1` [Example 9.3]: the negative-log IC50 (pIC50) is 6.47. As for `CC(=O)N[C@@H](C)c1ccc(O[C@@H]2CCN(c3ncnc(C4CCCC4)c3F)C2)cc1` [Example 9.4], the pIC50 is 6.33. `CC(=O)N[C@@H](C)c1ccc(O[C@@H]2CCN(c3ncnc(C4CC4)c3F)C2)cc1` [Example 9.5] gave a negative-log IC50 (pIC50) of 6.00. `CC(=O)N[C@@H]1CC[C@H](C(=O)N[C@@H](C)c2ccc(O[C@@H]3CCN(c4ncnc(OCC5CC5)c4F)C3)cc2)C1` [Example 10.1, (1S,3R)-3-acetamido-N—((S)-1-(4-((R)-1-(6-(cyclopropylmethoxy)-5-fluoropyrimidin-4-yl)pyrrolidin-3-yloxy)phenyl)ethyl)cyclopentanecarboxamide] showed a pIC50 of 6.63. The same measure for `COCC(=O)N[C@@H]1CC[C@H](C(=O)N[C@@H](C)c2ccc(O[C@@H]3CCN(c4ncnc(OCC5CC5)c4F)C3)cc2)C1` [Example 10.2]: 6.76; for `C[C@H](NC(=O)C1CC1)c1ccc(O[C@@H]2CCN(c3nc(N4CCC5(CC5)C4)ncc3F)C2)cc1` [Example 10.4]: 6.92; for `C[C@H](NC(=O)C1CC1)c1ccc(O[C@@H]2CCN(c3nc(N4CCOCC4)ncc3F)C2)cc1` [Example 10.5]: 6.53.
